Results on two substances are retold here after patent US20220016272A1, “COMPOSITIONS, METHODS AND KITS FOR DIAGNOSING AND TREATING CD206 EXPRESSING CELL-RELATED DISORDERS” (Cardinal Health 414, LLC, priority 2013, published 2022).

The target of data set [1] is mannose receptor protein CD206 (Homo sapiens, UniProt P22897).
Data set [2] relates to Kaposi's sarcoma lesion(s). The experiment in a line: SPECT and SPECT/CT imaging of primary cutaneous Kaposi's sarcoma. The conditions noted are these: 50 μg tilmanocept, 2.0 mCi 99mTc, subcutaneous; example in present tense. Format: in vivo, human. As to the method:
The following illustrates yet another example of the evaluation of Primary Cutaneous Kaposi's Sarcoma (KS) by SPECT and SPECT/CT Imaging using Lymphoseek® (also known as technetium 99mTc-tilmanocept injection) a radiopharmaceutical that binds to mannose binding receptors (CD206) that reside on the surfaces of dendritic cells and macrophages.
The total volume of 99mTc-tilmanocept injection is 0.3 to 0.5 mL.
The patient has a marker lesion (>1 cm in diameter) with a confirmed diagnosis of KS (CD206-expressing cutaneous KS) via punch biopsy. The location of the marker KS lesion is on the extremities: from the shoulder to the metacarpal region or from the groin to the metatarsal region.
The dose is administered by a syringe with a ⅝ inch, 25- or 27-gauge, fixed needle, or other syringe/needle combinations that are acceptable for subcutaneous injections. The injection is made 1.5±0.25 cm distal from the marker lesion, 4-8 cm distal to the marker lesion, or 4-8 cm proximal to the marker lesion.
The patient undergoes a regional dynamic SPECT scan immediately post-injection for a duration of 30 minutes. After the initial scan, the patient undergoes whole body SPECT/CT imaging at 1 hour and whole body SPECT imaging at 4-6 hours post injection. The patient is permitted to leave the imaging center after the 4-6 hour SPECT scan. […]

The conditions of data set [3]: staging breast cancer, melanoma or SCC; cited from earlier work.

Chain of mannose receptor protein CD206 (P22897 19-1456): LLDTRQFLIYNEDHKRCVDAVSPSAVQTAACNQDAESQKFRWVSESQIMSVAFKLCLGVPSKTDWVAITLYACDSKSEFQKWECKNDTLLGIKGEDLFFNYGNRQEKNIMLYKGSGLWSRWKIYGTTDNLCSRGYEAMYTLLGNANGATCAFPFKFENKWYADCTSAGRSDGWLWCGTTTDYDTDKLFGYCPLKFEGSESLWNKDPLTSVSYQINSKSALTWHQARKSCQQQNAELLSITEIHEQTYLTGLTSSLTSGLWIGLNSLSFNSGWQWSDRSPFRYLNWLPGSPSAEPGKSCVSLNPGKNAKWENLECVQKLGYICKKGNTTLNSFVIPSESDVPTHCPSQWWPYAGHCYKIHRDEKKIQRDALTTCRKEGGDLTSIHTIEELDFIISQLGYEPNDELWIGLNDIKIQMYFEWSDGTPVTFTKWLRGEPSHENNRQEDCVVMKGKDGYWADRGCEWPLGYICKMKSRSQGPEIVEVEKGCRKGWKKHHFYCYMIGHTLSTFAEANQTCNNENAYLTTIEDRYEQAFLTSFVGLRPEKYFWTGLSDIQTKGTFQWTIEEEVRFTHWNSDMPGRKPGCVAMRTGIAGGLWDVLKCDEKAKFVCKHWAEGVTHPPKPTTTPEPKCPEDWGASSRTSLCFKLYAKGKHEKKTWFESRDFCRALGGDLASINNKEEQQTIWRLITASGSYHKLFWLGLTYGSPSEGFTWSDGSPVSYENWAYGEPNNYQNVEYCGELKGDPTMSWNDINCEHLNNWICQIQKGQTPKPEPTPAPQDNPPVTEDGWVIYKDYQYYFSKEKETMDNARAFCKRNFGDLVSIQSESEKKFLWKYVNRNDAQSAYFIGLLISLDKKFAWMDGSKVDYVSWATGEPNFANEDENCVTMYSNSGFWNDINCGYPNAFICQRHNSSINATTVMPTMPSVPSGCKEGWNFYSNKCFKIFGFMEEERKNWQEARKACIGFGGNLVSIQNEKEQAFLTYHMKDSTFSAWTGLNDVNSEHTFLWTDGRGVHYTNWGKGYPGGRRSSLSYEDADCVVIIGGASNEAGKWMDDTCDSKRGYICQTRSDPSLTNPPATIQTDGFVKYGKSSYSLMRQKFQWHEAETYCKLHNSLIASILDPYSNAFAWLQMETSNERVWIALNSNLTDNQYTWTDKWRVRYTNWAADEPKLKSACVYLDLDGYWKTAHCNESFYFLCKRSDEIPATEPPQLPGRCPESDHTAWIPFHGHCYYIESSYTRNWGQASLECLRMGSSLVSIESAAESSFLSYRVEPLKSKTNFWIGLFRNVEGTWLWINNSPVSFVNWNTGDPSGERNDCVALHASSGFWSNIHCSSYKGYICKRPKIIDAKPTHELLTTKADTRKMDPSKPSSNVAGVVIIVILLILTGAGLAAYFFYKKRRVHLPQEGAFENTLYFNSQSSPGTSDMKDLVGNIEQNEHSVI

Regarding “dextran 3-[(2-aminoethyl)thio]propyl 17-carboxy-10,13,16-tris (carboxymethyl)-8-oxo-4-thia-7,10,13,16-tetraazaheptadec-1-yl 3-[[2-[[1-imino-2-(D-mannopyranosylthio) ethyl]aminolethyllthiolpropyl ether complexes [tilmanocept]”, in data set [1], the “intracellular fate after uptake into macrophage” value is on record as “persists in stable non-digesting vesicles”. Also, the receptor specificity entry in data set [1] (administered to mammals or contacted with CD206 expressing cells ex vivo) is “bind exclusively to the mannose receptor protein CD206”.
On to “technetium Tc 99m, dextran 3-[(2-aminoethyl)thio]propyl 17-carboxy-10,13,16-tris(carboxymethyl)-8-oxo-4-thia-7,10,13,16-tetraaz aheptadec-1-yl 3-[[2-[[1-imino-2-(D-mannopyranosylthio) ethyl]amino]ethyl]thio]propyl ether complexes [Lymphoseek]”, for which, in data set [2], the “detection of KS lesions by SPECT and SPECT/CT” value was “aids in the detection of Kaposi's sarcoma lesion(s)”. In data set [3], the injection site clearance result is “rapid clearance from an injection site”; the “uptake by distal or second-echelon lymph nodes” value was “low uptake by distal or second-echelon lymph nodes”; the “uptake by the sentinel lymph node(s)” value was “rapid and sustained uptake by the sentinel lymph node(s)”.
